Source: PMC8355244, “A fragment-based approach identifies an allosteric pocket that impacts malate dehydrogenase activity” (Communications Biology, 2021)
“And” between values parts separate entries of the source, which are not always exact repeats. Identical values can stand only once.

Molecular target: T1, PfMDH (Plasmodium falciparum, UniProt Q6VVP7)
T1 construct: The full-length WT PfMDH gene was cloned into pETM-13; made in house; host or cells: E. coli Rosetta 2 (DE3) pLysS
Assay: Thermal shift assay (TSA)
Format: binding
Settings: for TSA melting curve raw signal: triplicate columns; for TSA melting curve raw fluorescence signal: three replicate columns
Procedure: The TSA experiment was conducted in a BioRad CSX 96 (Biorad). Each reaction consisted of 1 mM of compound (100 mM stock in 100% (v/v) DMSO) and 10 μM PfMDH in 100 mM Na–phosphate buffer pH 7.4, 400 mM NaCl, and 10× Sypro Orange (Invitrogen) for a total volume of 100 μl. Control experiments were performed with 1% (v/v) DMSO. Inflection points were determined using BioRad CFX96™ control software. Generally, a temperature increase of over 1 °C is interpreted as a result of the stabilization of the protein-ligand interaction. On the contrary, a negative shift is considered a destabilization caused by the fragment.

T1 sequence (Q6VVP7 entry or part of it): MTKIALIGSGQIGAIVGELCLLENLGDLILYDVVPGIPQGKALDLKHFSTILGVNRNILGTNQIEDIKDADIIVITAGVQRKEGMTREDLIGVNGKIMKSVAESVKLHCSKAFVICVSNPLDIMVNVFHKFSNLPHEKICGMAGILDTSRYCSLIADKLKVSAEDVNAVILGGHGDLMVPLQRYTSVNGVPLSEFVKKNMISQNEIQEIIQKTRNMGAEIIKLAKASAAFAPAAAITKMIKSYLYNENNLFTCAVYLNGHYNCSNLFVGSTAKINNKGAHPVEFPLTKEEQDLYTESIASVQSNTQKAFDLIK

CC(C)c1ccc(-c2csc(N)n2)cc1 [4PA-iPr]
TSA melting curve raw signal (Temperature 25): 8994.553 and 9647.617 and 6438.185
TSA melting curve raw signal (Temperature 28.5): 8708.714 and 9422.913 and 6243.713
TSA melting curve raw signal (Temperature 29): 8666.326 and 9387.251 and 6213.386
TSA melting curve raw signal (Temperature 29.5): 8621.607 and 9346.814 and 6180.231
TSA melting curve raw signal (Temperature 30): 8573.486 and 9300.135 and 6142.94
TSA melting curve raw signal (Temperature 30.5): 8522.699 and 9247.509 and 6102.88
TSA melting curve raw signal (Temperature 31): 8469.615 and 9188.155 and 6059.768
TSA melting curve raw signal (Temperature 31.5): 8414.733 and 9123.458 and 6015.201
TSA melting curve raw signal (Temperature 32): 8359.407 and 9056.051 and 5970.18
TSA melting curve raw signal (Temperature 32.5): 8304.924 and 8988.081 and 5926.995
TSA melting curve raw signal (Temperature 33): 8252.482 and 8921.905 and 5886.489
TSA melting curve raw signal (Temperature 33.5): 8202.645 and 8859.372 and 5849.818
TSA melting curve raw signal (Temperature 34): 8155.604 and 8800.883 and 5816.694
TSA melting curve raw signal (Temperature 34.5): 8111.732 and 8745.628 and 5787.575
TSA melting curve raw signal (Temperature 35): 8070.534 and 8693.896 and 5761.965
TSA melting curve raw signal (Temperature 35.5): 8031.026 and 8644.443 and 5738.964
TSA melting curve raw signal (Temperature 36): 7993.542 and 8596.911 and 5718.436
TSA melting curve raw signal (Temperature 36.5): 7957.673 and 8551.007 and 5700.528
TSA melting curve raw signal (Temperature 37): 7922.464 and 8507.049 and 5684.445
TSA melting curve raw signal (Temperature 37.5): 7887.874 and 8463.879 and 5669.608
TSA melting curve raw signal (Temperature 38): 7853.441 and 8420.795 and 5655.816
TSA melting curve raw signal (Temperature 38.5): 7818.479 and 8377.106 and 5642.728
TSA melting curve raw signal (Temperature 39): 7782.8 and 8332.642 and 5629.831
TSA melting curve raw signal (Temperature 39.5): 7746.169 and 8286.504 and 5617.536
TSA melting curve raw signal (Temperature 40): 7708.198 and 8238.766 and 5605.837
TSA melting curve raw signal (Temperature 40.5): 7669.164 and 8190.253 and 5594.748
TSA melting curve raw signal (Temperature 41): 7629.283 and 8141.701 and 5584.57
TSA melting curve raw signal (Temperature 41.5): 7588.559 and 8093.153 and 5575.514
TSA melting curve raw signal (Temperature 42): 7547.254 and 8045.202 and 5567.299
TSA melting curve raw signal (Temperature 42.5): 7505.687 and 7998.361 and 5560.186
TSA melting curve raw signal (Temperature 43): 7464.06 and 7952.024 and 5554.6
TSA melting curve raw signal (Temperature 43.5): 7421.867 and 7905.832 and 5550.504
TSA melting curve raw signal (Temperature 44): 7379.597 and 7859.513 and 5547.899
TSA melting curve raw signal (Temperature 44.5): 7337.446
TSA melting curve raw fluorescence signal (Temperature 73.5): 5613.749 and 6203.164 and 5886.042
TSA melting curve raw fluorescence signal (Temperature 74): 5569.101 and 6153.132 and 5854.081
TSA melting curve raw fluorescence signal (Temperature 74.5): 5525.043 and 6104.144 and 5823.779
TSA melting curve raw fluorescence signal (Temperature 75): 5482.121 and 6056.683 and 5794.617
TSA melting curve raw fluorescence signal (Temperature 75.5): 5439.984 and 6011.409 and 5766.404
TSA melting curve raw fluorescence signal (Temperature 76): 5398.991 and 5968.463 and 5738.594
TSA melting curve raw fluorescence signal (Temperature 76.5): 5359.122 and 5928.32 and 5710.64
TSA melting curve raw fluorescence signal (Temperature 77): 5320.849 and 5890.984 and 5682.195
TSA melting curve raw fluorescence signal (Temperature 77.5): 5284.278 and 5856.438 and 5652.603
TSA melting curve raw fluorescence signal (Temperature 78): 5250.129 and 5824.453 and 5622.025
TSA melting curve raw fluorescence signal (Temperature 78.5): 5218.737 and 5795.085 and 5590.553
TSA melting curve raw fluorescence signal (Temperature 79): 5190.081 and 5767.8 and 5558.166
TSA melting curve raw fluorescence signal (Temperature 79.5): 5164.369 and 5742.56 and 5524.814
TSA melting curve raw fluorescence signal (Temperature 80): 5141.29 and 5718.857 and 5491.376
TSA melting curve raw fluorescence signal (Temperature 80.5): 5120.384 and 5696.2 and 5457.362
TSA melting curve raw fluorescence signal (Temperature 81): 5101.31 and 5674.042 and 5422.806
TSA melting curve raw fluorescence signal (Temperature 81.5): 5083.427 and 5652.313 and 5387.856
TSA melting curve raw fluorescence signal (Temperature 82): 5065.661 and 5630.45 and 5352.463
TSA melting curve raw fluorescence signal (Temperature 82.5): 5047.726 and 5608.308 and 5316.196
TSA melting curve raw fluorescence signal (Temperature 83): 5028.992 and 5585.969 and 5279.628
TSA melting curve raw fluorescence signal (Temperature 83.5): 5009.082 and 5563.202 and 5242.696
TSA melting curve raw fluorescence signal (Temperature 84): 4988.359 and 5539.6 and 5205.226
TSA melting curve raw fluorescence signal (Temperature 84.5): 4967.168 and 5515.215 and 5167.448
TSA melting curve raw fluorescence signal (Temperature 85): 4945.239 and 5489.971 and 5129.648
TSA melting curve raw fluorescence signal (Temperature 85.5): 4923.212 and 5463.869 and 5091.727
TSA melting curve raw fluorescence signal (Temperature 86): 4900.827 and 5436.832 and 5053.765
TSA melting curve raw fluorescence signal (Temperature 86.5): 4877.872 and 5409.317 and 5016.032
TSA melting curve raw fluorescence signal (Temperature 87): 4854.433 and 5381.152 and 4978.26
TSA melting curve raw fluorescence signal (Temperature 87.5): 4830.501 and 5352.422 and 4939.972
TSA melting curve raw fluorescence signal (Temperature 88): 4805.564 and 5322.651 and 4900.899
TSA melting curve raw fluorescence signal (Temperature 88.5): 4779.827 and 5291.937 and 4861.053
TSA melting curve raw fluorescence signal (Temperature 89): 4753.311 and 5260.016 and 4820.436
TSA melting curve raw fluorescence signal (Temperature 89.5): 4725.882 and 5227.256 and 4779.347
TSA melting curve raw fluorescence signal (Temperature 90): 4698.144
